Source: patent US8309550B2, “Kinase inhibitors and their use as pharmaceutical agents” (Shanghai Genomics, Inc., priority 2011, dated 2012)
Read-outs that look alike come from different tables or passages of the source.

Assays:
Format in all cases: cell-based
HeLa cells = assay: 72 h MTT cytotoxicity assay HeLa; details: Homo sapiens
Description: (§1) MIT cytotoxicity assay. The compounds of the invention were subjected to a standard cellular proliferation assay using human cell lines. HeLa cells (Human cervix adenocarcinoma cell line, ATCC NO, CCL-2); A549 cells (Human lung carcinoma cells line, ATCC NO, CCL-185); U2OS cells (Human osteosarcoma cell line, ATCC NO, HTB-96); Eca-109 cells (Human esophageal carcinoma cell line); HepG2 (Human hepatocellular liver carcinoma cell line, ATCC NO, HB-8065); K562 cells (Human chronic myelogenous leukemia cell line, ATCC NO, CCL-243); SK-MEL-28 (Human malignant melanoma cell line, ATCC NO, HTB-72); Molt-4 (Human acute lymphoblastic leukemia cell line, ATCC NO, CRL-1582); H460 (Human large cell lung cancer cell line, ATCC NO, HTB-177); MDA-MB-231 (Human breast adenocarcinoma cell line, ATCC NO, HTB-26); MCF7 (Human breast adenocarcinoma cell line, ATCC NO, HTB-22); ACHN (Human renal cell adenocarcinoma cell line, ATCC NO, CRL-1611); PC-3M (Human prostate adenocarcinoma cell line, ATCC NO CRL-1435); HL60 (Human acute promyelocytic leukemia cell line, ATCC NO, CCL-240); THP-1 (Human acute monocytic leukemia, ATCC NO, TIB-202); Jurkat (Human acute T cell leukemia cell line, ATCC NO, CRL-2063); HCT-116 (Human colorectal carcinoma cell line, ATCC NO, CCL-247); HT-29 (Human colorectal adenocarcinoma cell line, ATCC NO, HTB-38™); WI-38 (Human normal lung cell line, ATCC NO, CCL-75); MRC-5 (Human normal lung cell line, ATCC NO, CCL-171).
(§2) HepG2, MDA-MB-231, WI-38 and MRC-5 cells were obtained from Shanghai Institute of Cell Biology, Chinese Academy of Sciences (Shanghai 200031, China). A549, HeLa, K562, MCF7, ACHN, H460, U2OS, Eca-109, MCF7, HL60, THP-1, Jurkat, HCT-116, HT-29, PC-3M, SK-MEL-28, Molt-4, H460 and […] cells were purchased from ATCC (American Type Culture Collection, USA).
(§3) Standard 72 h MTT (thiazolye blue; 3-[4,5-dimethylthiazol-2-yl]-2,5-diphenyltetrazolium bromide) assays were performed. Briefly, the cell lines used in this study were recovered and cultured according to the conditions recommended. 4000 cells per well were seeded into 96-well plates according to doubling time and incubated overnight at 37° C. Compounds were prepared in DMSO and a ½ dilution series in 100 μl cell culture media, added to cells (in duplicates) with the final DMSO concentration of 0.025%, and incubated for 72 hrs at 37° C. MTT solution (5 mg/ml) was added at 10 μl per well and incubated in the dark at 37° C. for 4 hr. Culture medium and MTT solution was removed. MTT dye was solubilised with 100 μl per well of DMSO with agitation. Absorbance was read at 562 nm and data analyzed using Sigmoid curve-fitting software Origin 6.0 (MicroCal, LLC, USA) to determine IC50 value.

A549 cells = assay: 72 h MTT cytotoxicity assay A549; details: Homo sapiens; A549, 72 hrs
Description: as §1, §2, §3

U2OS cells = assay: 72 h MTT cytotoxicity assay U2OS; details: Homo sapiens
Description: as §1, §2, §3

Eca-109 cells = assay: 72 h MTT cytotoxicity assay Eca-109; details: Homo sapiens; Eca-109, 72 hrs
Description: as §1, §2, §3

HepG2 = assay: 72 h MTT cytotoxicity assay HepG2; details: Homo sapiens; HepG2, 72 hrs
Description: as §1, §2, §3

K562 cells = assay: 72 h MTT cytotoxicity assay K562; details: Homo sapiens; K562, 72 hrs
Description: as §1, §2, §3

MCF7 = assay: 72 h MTT cytotoxicity assay MCF7; details: Homo sapiens; MCF7, 72 hrs
Description: as §1, §2, §3

SK-MEL-28-luc = assay: 72 h MTT cytotoxicity assay SK-MEL-28-luc; details: Homo sapiens
Description: as §1, §2, §3

Molt-4-luc = assay: 72 h MTT cytotoxicity assay Molt-4-luc; details: Homo sapiens
Description: as §1, §2, §3

MDA-MB-231-luc = assay: 72 h MTT cell viability MDA-MB-231-luc; details: Homo sapiens
Description: as §1, §2, §3

ACHN-luc = assay: 72 h MTT cell viability ACHN-luc; details: Homo sapiens
Description: as §1, §2, §3

PC-3M-luc = assay: 72 h MTT cell viability PC-3M-luc; details: Homo sapiens
Description: as §1, §2, §3

HL-60 = assay: 72 h MTT cell viability HL-60; details: Homo sapiens
Description: as §1, §2, §3

THP-1 = assay: 72 h MTT cell viability THP-1; details: Homo sapiens
Description: as §1, §2, §3

Jurkat = assay: 72 h MTT cell viability Jurkat; details: Homo sapiens
Description: as §1, §2, §3

HCT 116 = assay: 72 h MTT cell viability HCT 116; details: Homo sapiens
Description: as §1, §2, §3

HT-29 = assay: 72 h MTT cell viability HT-29; details: Homo sapiens
Description: as §1, §2, §3

MRC-5 = assay: 72 h MTT cell viability MRC-5 (normal lung); details: Homo sapiens, MRC5
Description: as §1, §2, §3

WI-38 = assay: 72 h MTT cell viability WI-38 (normal lung); details: Homo sapiens; WI-38, normal lung cell line
Description: as §1, §2, §3

[1] = THP-1, Table III, read-out: Cellular effect in mammalian cells IC50 THP-1
[2] = Table III, read-out: Cellular effect in mammalian cells IC50 Jurkat
[3] = HCT116, Table III, read-out: Cellular effect in mammalian cells IC50 HCT116
[4] = HT29, Table III, read-out: Cellular effect in mammalian cells IC50 HT29
[5] = MRC-5, Table III, read-out: Cellular effect in mammalian cells IC50 MRC-5
[6] = THP-1, read-out: Cell Viability IC50 THP-1
[7] = read-out: Cell Viability IC50 Jurkat
[8] = MRC-5, normal lung cell line, read-out: Cell Viability IC50 MRC-5
[9] = read-out: Cell Viability IC50 HCT 116
[10] = read-out: Cell Viability IC50 HT-29

Structure (SMILES)	IC50 (HeLa cells) [µM]	IC50 (A549 cells) [µM]	IC50 (U2OS cells) [µM]	IC50 (Eca-109 cells) [µM]	IC50 (HepG2) [µM]	IC50 (K562 cells) [µM]	IC50 (MCF7) [µM]	IC50 (SK-MEL-28-luc) [µM]	IC50 (Molt-4-luc) [µM]	IC50 (MDA-MB-231-luc) [µM]	IC50 (ACHN-luc) [µM]	IC50 (PC-3M-luc) [µM]	IC50 (HL-60) [µM]	IC50 (THP-1; [1]) [µM]	IC50 (Jurkat; [2]) [µM]	IC50 (HCT 116; [3]) [µM]	IC50 (HT-29; [4]) [µM]	IC50 (MRC-5; [8]) [µM]	further results
CCCn1cc(-c2ccnc(Nc3ccc(C)c(S(=O)(=O)N4CCOCC4)c3)n2)c2ccncc21 [Compound 102, N-(4-Methyl-3-(morpholinosulfonyl)phenyl)-4-(1-propyl-1H-pyrrolo[2,3-c]pyridin-3-yl)pyrimidin-2-amine]	0.49	0.57	0.57	3.52	0.5	1.44	1.3	0.99	0.23	0.75	0.62	1.13	0.23	–	–	–	–	–	–
CCCn1cc(-c2ccnc(Nc3ccc(S(N)(=O)=O)cc3)n2)c2nc(Cl)cc(C)c21 [SG54]	–	–	–	–	–	–	–	–	–	–	–	–	–	2.95	1.12	3.46	0.15	–	IC50 (MRC-5; [5]): 3.97 µM
CCCn1cc(-c2ccnc(Nc3cccc(S(N)(=O)=O)c3)n2)c2ccncc21 [SG51]	–	–	–	–	–	–	–	–	–	–	–	–	–	–	–	0.004	0.02	–	–
CCCn1cc(-c2ccnc(Nc3cccc(S(N)(=O)=O)c3)n2)c2ccncc21 [Compound 111, 3-(4-(1-Propyl-1H-pyrrolo[2,3-c]pyridin-3-yl)pyrimidin-2-ylamino)benzenesulfonamide]	0.01	0.01	0.03	0.05	0.58	0.03	0.08	0.01	0.01	0.03	0.06	0.006	0.01	–	–	–	–	0.06	IC50 (THP-1; [6]): 0.01 µM; IC50 (Jurkat; [7]): 0.0054 µM
CCCn1cc(-c2ccnc(Nc3ccc(C)c(S(=O)(=O)N4CCOCC4)c3)n2)c2ccncc21 [SG52]	–	–	–	–	–	–	–	–	–	–	–	–	–	0.41	0.69	0.28	0.45	–	IC50 (MRC-5; [5]): 1.63 µM
CCCn1cc(-c2ccnc(Nc3cccc(S(N)(=O)=O)c3)n2)c2nc(Cl)cc(C)c21 [SG53]	–	–	–	–	–	–	–	–	–	–	–	–	–	1.04	0.36	–	–	–	–
CCCn1cc(-c2ccnc(Nc3ccc(O)cc3)n2)c2cccnc21 [Compound 15, 4-(4-(1-Propyl-1H-pyrrolo[2,3-b]pyridin-3-yl)pyrimidin-2-ylamino)phenol]	10.4	4.98	7.44	20	1.16	9.81	0.12	9.43	2.46	5.94	7.81	10.5	–	–	–	–	–	–	IC50 (WI-38): > 10 µM
CCCn1cc(-c2ccnc(Nc3cccc(O)c3)n2)c2cccnc21 [Compound 16, 3-(4-(1-Propyl-1H-pyrrolo[2,3-b]pyridin-3-yl)pyrimidin-2-ylamino)phenol]	14.2	3.33	7.42	12.9	1.6	7.68	2.17	8.51	3.82	5.27	7.38	5.11	–	–	–	–	–	–	IC50 (WI-38): > 10 µM
CCCn1cc(-c2ccnc(Nc3cccc(S(N)(=O)=O)c3)n2)c2cccnc21 [Compound 22, 3-(4-(1-Propyl-1H-pyrrolo[2,3-b]pyridin-3-yl)pyrimidin-2-ylamino)benzenesulfonamide]	1.67	2.82	2.13	3.4	0.7	1.42	1.13	2.72	2.45	–	3.74	3.19	2.09	–	–	–	–	5.17	IC50 (THP-1; [6]): 3.26 µM; IC50 (Jurkat; [7]): 1.47 µM; IC50 (HCT 116; [9]): 1.89 µM; IC50 (HT-29; [10]): 1.46 µM
CCCn1cc(-c2ccnc(Nc3cccc(S(N)(=O)=O)c3)n2)c2nc(Cl)cc(C)c21 [Compound 42, 3-(4-(5-Chloro-7-methyl-1-propyl-1H-pyrrolo[3,2-b]pyridin-3-yl)pyrimidin-2-ylamino)benzenesulfonamide]	9.93	1.73	1.86	10.5	0.55	> 10	> 10	9.45	4.79	1.28	> 10	4.06	1.14	–	–	–	–	14.6	IC50 (HCT 116; [9]): 3.36 µM; IC50 (HT-29; [10]): 0.2 µM
